Key:
[1] = test system: ribosomal protein S6 phosphorylation; test: 96-well in-cell western assay of ribosomal protein S6 phosphorylation in HeLa cells; format: cell-based; settings: Homo sapiens, 1 h, 60 min stimulation with nutrients in the presence or absence of 100 nM insulin, anti-phospho(Ser235-236)S6, read-out: induced phosphorylation of S6, mean IC50
Protocol: A 96-well “in-cell western” assay is used to quantitate the levels of ribosomal protein S6 phosphorylation following treatment of HeLa cells with compounds. HeLa cells are seeded on to 96-wells plates (5000 cells/well), cultured for 72 h prior to serum deprivation for 18 h, in a humidified environment of 5% CO2 at 37° C. throughout. Thereafter, they are incubated in 200 μL of starve-medium for 180 min prior to a 60 min stimulation with 200 μL of test-medium. All solutions are pre-warmed for 30 min; the 96-well plates are sealed (Millipore) and incubated in a non-CO2 incubator at 37° C. during the starvation and stimulation protocol. […] After a 48 h blocking step in Tris buffered saline pH=7.2 containing 0.1% Triton-X100 and 0.1% bovine serum albumin, at 4° C., fixed cells are incubated overnight at 4° C. with the anti-phospho(Ser235-236)S6 primary antibody (Cell Signaling Technologies #2211 [can be substituted with Cell Signaling Technologies #2215 to quantitate S6 phosphorylation at Ser240-244]; 50 μL at 1:300 in blocking-solution), washed (8×200 μL TBS) before 100 μL of europium-labeled anti-rabbit secondary antibody (Perkin-Elmer; 2.4 μg/mL) is added for 90 min at room temperature in the dark. After a final wash (8×200 μL TBS), 100 μL of Delphia™ Enhancement-solution is added to each well and the fluorescence quantified 120 min later using an Envision 2101 (Perkin-Elmer). […]

mTOR enzyme = molecular target: T1, mTOR enzyme (Homo sapiens, UniProt P42345); test: K-LISA mTOR activity kit biochemical assay; settings: GST-S6K1 substrate, 100 μM ATP, 30 minutes at 30° C., anti-phospho Thr389 detection; read-out: mTOR kinase activity, mean IC50
T1 construct: purchased Calbiochem CBA055
Protocol: This mixture is then transferred to a glutathione-coated 96-well plate pre-incubated with GST-S6K1 recombinant protein. Kinase reactions are initiated by adding kinase buffer containing 100 μM ATP and are incubated for 30 minutes at 30° C. mTOR activity is quantitated using an anti-phospho Thr389-HRP conjugate detection system. Wortmannin served as control compound for the mTOR kinase activity assay.

Row | SMILES | IC50 [1] [nM] | IC50 (mTOR enzyme) [nM]
1 | Cn1c(=O)n(-c2ccc(C(C)(C)C#N)cc2)c2c3cc(-c4cnc5ccccc5c4)ccc3ncc21 [compound 1, 2-Methyl-2-[4-(3-methyl-2-oxo-8-quinolin-3-yl-2,3-dihydro-imidazo[4,5-c]quinolin-1-yl)-phenyl]-propionitrile] | 17 | 
2 | COc1ccc(-c2ccc3ncc4c(c3c2)n(-c2ccc(N3CCNCC3)c(C(F)(F)F)c2)c(=O)n4C)cn1 [compound 2, 8-(6-Methoxy-pyridin-3-yl)-3-methyl-1-(4-piperazin-1-yl-3-trifluoromethyl-phenyl)-1,3-dihydro-imidazo[4,5-c]quinolin-2-one] | 11 | 1.4

Source: patent publication US9370508B2, “Imidazoquinolines as dual lipid kinase and mTOR inhibitors” (NOVARTIS AG, priority 2007, dated 2016)
